Measured values taken from patent US20230272012A1, “PEPTIDES AND METHODS OF USE” (REALTA LIFE SCIENCES, INC., priority 2020, published 2023).
Bridge positions count the residues as written; N and C are the ends. Square brackets hold non-standard residues; d marks the D form. Ends that are not written are not given here. Peptide text beside a SMILES is read from it. R8 = C=CCCCCCC[C@@](C)(N)C(=O)O; S5 = C=CCCC[C@](C)(N)C(=O)O; Sar = CNCC(=O)O

How the values were obtained:
[1] = ABO incompatibility hemolytic assay of complement activity (CH50-type); format: cell-based, human; details: human; peptide 0.8 mg/ml (~0.5 mM); read-out: decrease of ABO hemolysis compared to PA-I8Sar
How it was run: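 Type AB human erythrocytes (5.0×10^7) incubated with 15% (final) type O human serum and 0.5 mM peptide in GVBS^++, 1 h at 37 °C. Hemolysis read as supernatant absorbance at 412 nm, expressed as percent of the serum-plus-RBC positive control; means of three independent experiments ±SEM.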

[2] = Total Antioxidant Capacity (TAC) assay; details: highest peptide concentration 1.5 mM
Method: As previously reported, the TAC (Total Antioxidant Capacity) Assay (Cell Biolabs, Inc, San Diego, Calif.) was used to measure the antioxidant capacity of the PIC1 variants based on the reduction of copper (II) to copper (I). The kit protocol was performed per the manufacturer's recommendations.
The antioxidant properties for the PIC1 variants were evaluated in a Total Antioxidant Capacity (TAC) assay, as previously reported. Total antioxidant activity over a range of peptide concentrations were determined for the stapled and the D-amino acid peptides based on the PA-I8Sar and PA-C9Sar backbones (FIG. 8A-8D), with the activity of the highest peptide concentration reported (1.5 mM) (FIGS. 4A and B, respectively). […] For the D-amino acid variants, there was variation in the amount of antioxidant activity with the peptides having similar, slightly lower and slightly higher levels of total antioxidant capacity. In contrast, stapled peptides (PA-0135 through -0140) as well as combination of stapled and D-amino acid peptides had reduced total antioxidant capacity (FIG. 4A).

[3] = format: in vivo, rat; details: IV in Wistar rats, 20, 200, 400 mg/kg; 0.5-1440 minute
Method: (§1) Male Wistar rats with indwelling jugular catheters were administered PA-0117, -0127, -0130, and -0133 with groups of three animals receiving 20, 200 and 400 mg/kg of the compound as a single, bolus, IV infusion. A control group of rats received an infusion of saline IV. At various time points after infusion (0.5, 2, 5, 20, 60, 120, 240, 480, 1440 minute) an aliquot of blood was drawn and plasma isolated and frozen at −70° C. pending analysis. Animals were sacrificed after the terminal blood draw and a gross necropsy performed.
(§2) PA-0117 could not be analyzed as no functional complement activity was obtained from the plasma samples. […] PA-0117 was analyzed in a C1q target acquisition assay (C1q binding assay) as described in Example 1 (FIG. 9). […] PA-0127 and -0130 levels were determined by coating the plate with the plasma samples and directly detecting the peptides by rabbit antibody raised against PA-0020 (peptide sequence […]; SEQ ID NO: 57) (FIGS. 10B and 11B). […] PA-0133 could not be detected by the available antibodies.
PA-0117: The hemolysis assay results were not useable (few pre-bleeds had any activity, and only a few other random samples had any complement activity). The PK assay for PA-0117 was performed by sandwich ELISA (FIG. 9). PA-0127: The results of the hemolysis assay are discussed herein (see also FIG. 10A). […] PA-0130: The results of the hemolysis assay are discussed herein (see also FIG. 11A). […] PA-0133: The results of the hemolysis assay are discussed herein (FIG. 12).

CTLA-4 = target: T1, CTLA-4 (Homo sapiens, UniProt P16410); test: Peptide binding to immobilized CTLA-4, ELISA plate-based assay; details: increasing amounts of peptide
T1 sequence (P16410 36-223): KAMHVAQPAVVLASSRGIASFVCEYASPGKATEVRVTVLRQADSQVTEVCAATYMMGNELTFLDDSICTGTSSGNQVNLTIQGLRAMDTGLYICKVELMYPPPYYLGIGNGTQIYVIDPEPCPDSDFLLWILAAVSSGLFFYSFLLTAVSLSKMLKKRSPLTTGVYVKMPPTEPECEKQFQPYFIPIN
Method: (§3) RLS-0117 was allowed to bind to immobilized CTLA-4, PD-1, PD-L1 on the surface of the plate. Bound C1q served as a positive and control for peptide binding. Increasing amounts of peptides were added to the plates followed by a rabbit polyclonal antibody that recognizes the peptides and then a secondary anti-rabbit antibody conjugated with HRP. The plate was then developed by addition of TMB as the substrate for the colorimetric assay.
(§4) The inventors further evaluated if RLS-0117 could bind to the well characterized checkpoint inhibitor, cytotoxic T-lymphocyte associated protein 4 (CTLA-4 aka CD152). […] Therefore, the pharmaceutical inhibition of CTLA-4 or its ligand has been considered a promising strategy by many cancer researchers and is a therapeutic target in cancer immunotherapy. To ascertain the ability of RLS-0117 to bind CTLA-4, a binding assay was performed in which these proteins were coated on a microtiter plate followed by incubation with increasing amounts of either […]. Plates coated with PD-1, PD-L1 and C1q served as a positive control […].

PD-1 = PD-1 (Homo sapiens, UniProt Q15116); test: Peptide binding to immobilized PD-1, ELISA plate-based assay; details: increasing amounts of peptide
Method: as §3, §4

PD-L1 = PD-L1 (Homo sapiens, UniProt Q9NZQ7); test: Peptide binding to immobilized PD-L1, ELISA plate-based assay; details: increasing amounts of peptide
Method: as §3, §4

complement activity = test: Hemolytic assay of plasma after IV infusion into rats; format: in vivo, rat; details: IV in Wistar rats; early time points at the highest dose
Method: as §1, §2

Sequence of PD-L1 (Q9NZQ7 19-290): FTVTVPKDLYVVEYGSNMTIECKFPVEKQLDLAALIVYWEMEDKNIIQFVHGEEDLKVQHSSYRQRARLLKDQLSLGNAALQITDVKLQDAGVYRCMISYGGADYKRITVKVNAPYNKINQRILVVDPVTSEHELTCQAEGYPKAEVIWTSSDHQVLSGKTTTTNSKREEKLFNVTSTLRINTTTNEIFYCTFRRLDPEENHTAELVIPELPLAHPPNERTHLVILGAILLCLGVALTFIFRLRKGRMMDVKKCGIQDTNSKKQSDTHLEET
Sequence of PD-1 (Q15116 25-288): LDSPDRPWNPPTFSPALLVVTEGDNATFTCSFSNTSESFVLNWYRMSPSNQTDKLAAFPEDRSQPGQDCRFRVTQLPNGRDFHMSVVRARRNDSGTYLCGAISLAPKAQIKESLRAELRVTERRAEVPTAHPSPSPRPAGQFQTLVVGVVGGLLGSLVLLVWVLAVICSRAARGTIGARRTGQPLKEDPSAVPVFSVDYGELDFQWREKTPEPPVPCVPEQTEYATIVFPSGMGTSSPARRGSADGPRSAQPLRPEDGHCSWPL

Which results are given for CC[C@H](C)[C@H](N)C(=O)N[C@]1(C)CCCCCCC=CCCC[C@@](C)(C(=O)N[C@@H](CS)C(=O)N[C@@H](CCC(N)=O)C(=O)N[C@@H](CCC(=O)O)C(=O)N[C@@H](CCCNC(=N)N)C(=O)N[C@@H](C)C(=O)N[C@@H](C)C(=O)O)NC(=O)CN(C)C(=O)[C@@H]2CCCN2C(=O)[C@H](CCC(=O)O)NC(=O)[C@H](CC(C)C)NC(=O)[C@H]([C@@H](C)CC)NC(=O)[C@H](CC(C)C)NC1=O [PA-0115, IR8LILEP(Sar)S5CQERAA] (H-I[R8]LILEP[Sar][S5]CQERAA-OH; staple 2-9)?
decrease in ABO hemolysis compared to reference peptide at 1 h [1]: 30%; total antioxidant capacity compared with PA-I8Sar [2]: much less antioxidant activity; total antioxidant capacity compared with PA-I8Sar ([2]; listed as PA-0015): reduction in total antioxidant capacity

What does the source list for CC[C@H](C)[C@H](N)C(=O)N[C@@H](C)C(=O)N[C@@H](CC(C)C)C(=O)N[C@H](C(=O)N[C@@H](CC(C)C)C(=O)N[C@@H](CCC(=O)O)C(=O)N1CCC[C@H]1C(=O)N(C)CC(=O)N[C@@H](CS)C(=O)N[C@@]1(C)CCCC=CCCC[C@@](C)(C(=O)N[C@@H](C)C(=O)O)NC(=O)[C@H](CCCNC(=N)N)NC(=O)[C@H](CCC(=O)O)NC(=O)[C@H](CCC(N)=O)NC1=O)[C@@H](C)CC [PA-0117, IALILEP(Sar)CS5QERS5A] (H-IALILEP[Sar]C[S5]QER[S5]A-OH; staple 10-14)?
decrease in ABO hemolysis compared to reference peptide at 1 h [1]: 25%; peptide level in plasma over time [3]: detected at early time points at each dose and decreased over time; binding to CTLA-4 (CTLA-4): bound CTLA-4; binding to PD-1 (PD-1): dose-dependent binding; binding to PD-L1 (PD-L1): dose-dependent binding

With “IALILEP(Sar)CCQERA (IALILEP[Sar]CCQERA; cysteine pairing not given here) [RLS-0133*]” as the molecule, how does the “inhibition of complement activity in the hemolytic assay of rat plasma” value (complement activity) read?
Its value is “inhibit complement activation”.

Which “inhibition of complement activity in the hemolytic assay of rat plasma” value (complement activity) does the source give for “IALILEP(Sar)dCCQERRA (IALILEP[Sar][dC]CQERRA; cysteine pairing not given here) [RLS-0127*]” here?
Its value is “inhibit complement activation”.
